The values that follow come from patent US5364854A, “Derivatives of substituted imidazo benzoxazin-1-one and process for their preparation” (Farmitalia Carlo Erba S.r.l., priority 1992, dated 1994).

Molecules are shown by their SMILES. Counter-ions that a name gives are not always drawn.

One may read the % Inhibition as the share of the control response that was lost under treatment. Low readings indicate a response near the control, high ones a response far below the control. What is called ED50 is the dose at which the effect has come halfway, by size or by number of responders. The term Ki denotes the dissociation constant of the complex between target and ligand, obtained from inhibition or displacement.

The target of assay [1] is T1, 5HT3 receptor (Rattus norvegicus, UniProt P35563).
T1 sequence (P35563 24-483): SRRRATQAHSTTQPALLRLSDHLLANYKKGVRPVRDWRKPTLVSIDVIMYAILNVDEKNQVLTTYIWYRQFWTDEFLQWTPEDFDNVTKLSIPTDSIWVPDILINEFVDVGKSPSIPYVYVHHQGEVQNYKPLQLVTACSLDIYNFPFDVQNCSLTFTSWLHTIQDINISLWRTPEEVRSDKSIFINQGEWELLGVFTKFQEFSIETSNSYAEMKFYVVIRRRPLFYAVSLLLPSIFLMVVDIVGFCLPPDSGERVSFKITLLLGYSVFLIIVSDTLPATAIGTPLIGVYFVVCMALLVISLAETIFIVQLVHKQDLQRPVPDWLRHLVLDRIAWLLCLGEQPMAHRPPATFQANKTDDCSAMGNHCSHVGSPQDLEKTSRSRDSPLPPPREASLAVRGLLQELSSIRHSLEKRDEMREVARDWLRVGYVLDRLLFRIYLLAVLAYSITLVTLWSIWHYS
The assay can be described thus: Inhibition of the von Bezold-Jarisch chemoreflex evoked by 5-HT (20 μg/kg i.v.) in the anesthetised rat (in vivo 5HT3 antagonist activity). The note with it: anesthetized rat; for % Inhibition: mean ± S.E.M.; for ED50: iv, limits in parentheses on the following line. More on the design: chemoreflex evoked by 5-HT in the anesthetised rat; from tissue; host or cells: anaesthetised rat in vivo (own knowledge: 5-HT3 receptors on cardiac vagal afferents). The procedure:
Pharmacol. 326, 36-44 (1984).
The following Table I reports the in vivo 5HT3 antagonist activity data obtained in this test for the representative compounds of the invention 2,3,3a,4-tetrahydro-2-(1-azabicyclo [2.2.2]oct-3-yl)-8-chloro-1H-imidazo[5,1-c][1,4]benzoxazin-1-one hydrochloride (internal code FCE 26781);
Inhibition of the Bezold-Jarisch reflex elicited by 5-HT (20
μg/kg i.v.) by i.v. FCE compounds in the anesthetized rat.
Values are mean ± S.E.M. from N animals

The target of assay [2] is T1, 5HT3 receptor. Nature of the assay: Inhibition of the binding of ^3 H-GR65630 to 5-HT3 sites in rat entorhinal cortex. More on the design: labelled in the entorhinal cortex of the rat brain; from tissue; host or cells: rat entorhinal cortex. The source says: (§1) The following Table II reports the data obtained in this in vitro test for a representative group of compounds of the invention in comparison with the known reference compounds MDL 72222 and Metoclopramide.
(§2) 5-HT3 binding affinity ^(a) for rat entorhinal cortex
(§3) ^(a) [^3 HGR 65630 labelled 5HT3 sites.
(§4) The tested compounds were able to interact with 5-HT3 -serotonin receptors labelled in the entorhinal cortex of the rat brain with ^3 H-GR 65630.

The target in assay [3] is T1, 5HT3 receptor. The assay can be described thus: 5-HT3 binding affinity in rat entorhinal cortex using ^3 H-BRL 43694 (Granisetron). More on the design: labelled in the entorhinal cortex of the rat brain; from tissue; host or cells: rat entorhinal cortex. The procedure:
The affinity for serotonin 5-HT3 receptor was also assessed for instance in rat entorhinal cortex using the selective radioligand ^3 H-[…] as described by Nelson and Thomas (1989).
Nelson D. R. and Thomas D. R., [^3 H]-BRL 43694 (Granisetron), a specific ligand for 5-HT3 binding sites in rat brain cortical membranes Biochem. Pharmac. 38, 1693-1695, 1989.
The following Table III summarizes the data obtained in this in vitro test for a representative group of compounds of the invention in comparison with the known reference compounds MDL 72222 and Metoclopramide.
5-HT3 binding affinity ^b) for rat entorhinal cortex.
^(b) ^3 […] labelled 5HT3 sites

A further assay addresses 5-HT3 receptor. The assay can be described thus: Inhibition of the binding of ^3 H-GR65630 to 5-HT3 sites in rat entorhinal cortex. The note with it: ^3 H-GR 65630, rat entorhinal cortex, low (affinity site), two-site fit.
Description: as §1, §2, §3, §4

[4] abbreviates: ^3 H-GR 65630, rat entorhinal cortex, high (affinity site), only Ki where one-site fit, read-out: Ki high.
The mark [5] stands for this setting: ^3 H-BRL 43694 labelled 5HT3 sites, rat entorhinal cortex, read-out: Ki.

Regarding `Cl.O=C1N(C2CN3CCC2CC3)CC2COc3ccc(Cl)cc3N12` (stereo not shown) [FCE 26781, 2,3,3a,4-tetrahydro-2-(1-azabicyclo [2.2.2]oct-3-yl)-8-chloro-1H-imidazo[5,1-c][1,4]benzoxazin-1-one hydrochloride], the “% Inhibition” value came out at 29.50 ± 6.34% on 5HT3 receptor [1] (50 μg/kg i.v., N=6); 50.38 ± 5.45% on 5HT3 receptor [1] (150 μg/kg i.v., N=6); 90.38 ± 2.80% on 5HT3 receptor [1] (450 μg/kg i.v., N=6). On 5HT3 receptor [1], the 50% effective dose (ED50) was found to be 0.112 mg/kg. Besides, the values for the Ki on 5HT3 receptor [2], on 5HT3 receptor [3] and on 5-HT3 receptor were 2.61 nM, 13 nM and 1900 nM, respectively.

Take `CN1C2CCC1CC(N1CC3COc4ccc(Cl)cc4N3C1=O)C2` (stereo not drawn) [FCE 26783, (endo)-2,3,3a,4-tetrahydro-8-chloro-2-(8-methyl-8-azabicyclo [3.2.1]oct-3-yl)-1H-imidazo[5,1-c][1,4]benzoxazin-1-one hydrochloride]: the “% Inhibition” value on 5HT3 receptor [1] (100 μg/kg i.v., N=3-7) is reported as 30.9 ± 6.0%. For the same molecule, the figures for the inhibition constant Ki on 5HT3 receptor [2] (setting [4]) and at 5HT3 receptor [3] were 400 nM and 30 nM, respectively.

Regarding `CN1C2CCCC1CC(N1CC3COc4ccc(Cl)cc4N3C1=O)C2` (stereo not drawn) [FCE 26785, (endo)-2,3,3a,4-tetrahydro-8-chloro-2-(9-methyl-9-azabicyclo[3.3.1]non-3-yl)-1H-imidazo[5,1-c][1,4]benzoxazin-1-one hydrochloride], the values for the Ki at 5HT3 receptor [2], at 5HT3 receptor [3] (setting [5]) and on 5-HT3 receptor were 9.79 nM, 310 nM and 600 nM, respectively.

As for `CN1C2CCC1CC(N1CC3COc4ccccc4N3C1=O)C2` (stereo not drawn) [FCE 26878, (endo)-2,3,3a,4-tetrahydro-2-(8-methyl-8-azabicyclo[3.2.1]oct-3-yl)-1H-imidazo[5,1-c][1,4]benzoxazin-1-one, hydrochloride], the “% Inhibition” value on 5HT3 receptor [1] (100 μg/kg i.v., N=3-7) is recorded as 85.8 ± 1.7%. Also, the ED50 at 5HT3 receptor [1] is 0.0138 mg/kg. Further, the Ki amounted to 70 nM on 5HT3 receptor [2] and 9 nM at 5HT3 receptor [3].

For the molecule `Cl.O=C1N(C2CN3CCC2CC3)CC2COc3ccccc3N12` (stereo not shown) [FCE 26962, 2,3,3a,4-tetrahydro-2-(1-azabicyclo[2.2.2]oct-3-yl)-1H-imidazo [5,1-c][1,4]benzoxazin-1-one hydrochloride], the “% Inhibition” value on 5HT3 receptor [1] (100 μg/kg i.v., N=3-7) stood at 86.4 ± 1.8%. Besides, the median effective dose (ED50) on 5HT3 receptor [1] came out at 0.0263 mg/kg. In addition, the Ki at 5HT3 receptor [2] is 9.74 nM; on 5HT3 receptor [3] it was 0.4 nM; on 5-HT3 receptor, 14000 nM.

For the molecule `CN1C2CCCC1CC(N1CC3COc4ccccc4N3C1=O)C2` (stereo not drawn) [FCE 26963, (endo)-2,3,3a,4-tetrahydro-2-(9-methyl-9-azabicyclo[3.3.1]non-3-yl)-1H-imidazo[5,1-c][1,4]benzoxazin-1-one hydrochloride], the “% Inhibition” value on 5HT3 receptor [1] (100 μg/kg i.v., N=3-7) is recorded as 27.1 ± 10.7%. Further, the inhibition constant (Ki) on 5HT3 receptor [2] (setting [4]) amounted to 151 nM; on 5HT3 receptor [3] (setting [5]) it was 170 nM; at 5-HT3 receptor it was 72000 nM.

In the case of `CN1C2CCC1CC(OC(=O)c1cc(Cl)cc(Cl)c1)C2` (stereo not shown) [MDL 72222, reference compound], the Ki at 5HT3 receptor [3] was determined as 23 nM.

The molecule `CCN(CC)CCNC(=O)c1cc(Cl)c(N)cc1OC` [Metoclopramide, reference compound] came in with a Ki on 5HT3 receptor [3] of 490 nM.
